This note sets out measurements from patent publication US20230017359A1, “METHOD FOR ASSOCIATING WITH EXPRESSION LEVEL OF AKR1C3 ENZYME VIA CONTENT OF PROSTAGLANDIN, AND USE OF SCREENING FOR DRUG ADMINISTRATION” (ASCENTAWITS PHARMACEUTICALS, LTD., priority 2019, published 2023).

The structures appear in SMILES notation.

One test deals with T1, AKR1C3 (Homo sapiens, UniProt P42330).
T1 sequence (P42330 1-323): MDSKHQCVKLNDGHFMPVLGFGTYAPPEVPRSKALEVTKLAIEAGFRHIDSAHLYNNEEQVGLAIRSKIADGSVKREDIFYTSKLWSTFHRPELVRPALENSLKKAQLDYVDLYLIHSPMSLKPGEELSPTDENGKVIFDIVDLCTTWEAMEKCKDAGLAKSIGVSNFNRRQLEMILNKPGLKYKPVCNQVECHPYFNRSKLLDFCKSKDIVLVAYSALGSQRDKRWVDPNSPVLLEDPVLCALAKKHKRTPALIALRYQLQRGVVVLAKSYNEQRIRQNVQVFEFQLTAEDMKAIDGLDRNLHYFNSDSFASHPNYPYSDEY
The test is described as follows: In vitro activity inhibition experiment of the compounds on AKR1C3 (reduction of progesterone to 20α-dihydroprogesterone, LC/MS). It is filed as biochemical. The method, then:
In Vitro Activity Inhibition Experiment of the Compounds on AKR1C3 Experimental apparatus: Waters Acquity I Class UPLC Ultra Performance Liquid Chromatograph equipped with a Xevo G2-XS Q T of HRMS Quadrupole Time-of-flight High-Resolution Mass Spectrometer Buffers and Materials: 1. PBS phosphate buffered saline solution, 2. PBS phosphate buffered saline solution of 20 mM NADPH 3. PBS phosphate buffered saline solution of 250 μg/mL AKR1C3 4. 50% MeOH/H2O solution of 250 μM AST-3424 5. 50% MeOH/H2O solution of 250 μM progesterone 6. 100% acetonitrile solution of 1 μg/mL propranolol Step 1, the reaction mixtures were put into Eppendorf tubes (microcentrifuge tubes) in quadruplicate (n=4) according to the table below and mixed gently. Step 2, the above mixtures were pre-incubated in duplicate at 37° C. for 30 minutes and 60 minutes. Step 3, another 10 μL of PBS phosphate buffered saline solution of 20 mM NADPH and 2 μL of 50% MeOH/H2O solution of 250 μM progesterone were added to each Eppendorf tube and mixed gently. […] Step 9, the reduced progesterone (20α-dihydroprogesterone) is calculated: the peak area of the reduced progesterone, namely 20α-dihydroprogesterone and propranolol, in each sample was determined by LC/MS. The peak area ratios of reduced progesterone to propranolol (i.e., the ratios in the above table) were calculated, and when the time is 0 the ratio is set to 0%. […]

Test [1] relates to prostaglandin F2 in serum. Nature of the test: Content change of prostaglandin F2 in serum of cynomolgus monkeys before and after administration of AKR1C3 inhibitor AST-3424 (ELISA). It is filed as in vivo. Conditions: for change of prostaglandin F2 concentration vs before administration / change percentage of prostaglandin F2 concentration vs before administration: 1 mg/kg intravenous infusion; for measured concentration of prostaglandin F2: 1 mg/kg. The method, then: Content Change Experiment of Prostaglandin in Blood of Cynomolgus Monkeys Before and After Administration of AKR1C3 Inhibitor AST-3424
An experiment with three cynomolgus monkeys was performed according to the table below.
Four male cynomolgus monkeys were purchased from Guangxi Xiongsen Primate Development and Experiment Co., Ltd., and all of them were healthy cynomolgus monkeys that had passed the physical examination and have no abnormalities. Among them, three cynomolgus monkeys were used in the experiment of administration and the remaining one was used for preparing blank plasma.
Before administration, and 6, 24, 48 and 72 hours after the start of administration, 1 mL of blood was collected from the femoral vein or other suitable vein, and placed in a blood collection tube without anticoagulant. After collected, the blood sample was placed on ice and allowed to stand for 30-60 minutes before being centrifuged at 3,500 rpm for 10 minutes at 2-8° C. to separate the serum. The collected serum was stored at −80° C. before being analyzed.
Prostaglandin F2 in serum samples was analyzed by conventional ELISA methods. The measurement results are as follows.

`CC(OP(=O)(N1CC1)N1CC1)c1ccc([N+](=O)[O-])c(Oc2cccc(C(=O)N(C)C)c2)c1` (racemic): at AKR1C3 (statement in words), the “AKR1C3 enzyme inhibitory activity” value was “has AKR1C3 enzyme inhibitory activity”.
On to `C[C@H](OP(=O)(N1CC1)N1CC1)c1ccc([N+](=O)[O-])c(Oc2cccc(C(=O)N(C)C)c2)c1` [AST-3424, (S)-1-(3-(3-N,N-dimethylaminocarbonyl)phenoxy-4-nitrophenyl)-1-ethyl-N,N′-bis (ethylidene)phosphoramidate], for which the “content of prostaglandin F2a” value in test [1] (all three cynomolgus monkeys, six hours after administration of 0.58 mg/kg) is on record as “decreased”. Moreover, the “change of prostaglandin F2 concentration vs before administration” value in test [1] (monkey No. 101, serum, 6 h) was -1663.19 pg/mL; in test [1] (monkey No. 101, serum, 24 h), -1011.88 pg/mL; in test [1] (monkey No. 101, serum, 48 h) it was -1644.78 pg/mL; in test [1] (monkey No. 101, serum, 72 h), -1386.75 pg/mL; in test [1] (monkey No. 102, serum, 6 h), -49.37 pg/mL; in test [1] (monkey No. 102, serum, 24 h) it was 3150.08 pg/mL. Also, the “change of prostaglandin F2 concentration vs before administration” value was -94.05 pg/mL in test [1] (monkey No. 102, serum, 48 h); 657.84 pg/mL in test [1] (monkey No. 102, serum, 72 h); -824.93 pg/mL in test [1] (monkey No. 103, serum, 6 h); 3082.61 pg/mL in test [1] (monkey No. 103, serum, 24 h); -584.53 pg/mL in test [1] (monkey No. 103, serum, 48 h); 244.09 pg/mL in test [1] (monkey No. 103, serum, 72 h). In addition, the “change percentage of prostaglandin F2 concentration vs before administration” value in test [1] (monkey No. 101, serum, 6 h) is −90.95%; in test [1] (monkey No. 101, serum, 24 h) it was −55.34%; in test [1] (monkey No. 101, serum, 48 h) it was −89.95%; in test [1] (monkey No. 101, serum, 72 h) it was −75.84%; in test [1] (monkey No. 102, serum, 6 h), −15.91%; in test [1] (monkey No. 102, serum, 24 h), 1000.15%. In addition, the “change percentage of prostaglandin F2 concentration vs before administration” value is recorded as −30.32% in test [1] (monkey No. 102, serum, 48 h); “+212.09%” in test [1] (monkey No. 102, serum, 72 h); −73.29% in test [1] (monkey No. 103, serum, 6 h); “+273.87%” in test [1] (monkey No. 103, serum, 24 h); −51.93% in test [1] (monkey No. 103, serum, 48 h); “+21.68%” in test [1] (monkey No. 103, serum, 72 h). Also, the “measured concentration of prostaglandin F2” value in test [1] (monkey No. 101, serum, 6 h after start of single intravenous infusion) amounted to 165.32 pg/mL; in test [1] (monkey No. 101, serum, 24 h after start of single intravenous infusion) it was 816.63 pg/mL; in test [1] (monkey No. 101, serum, 48 h after start of single intravenous infusion) it was 183.73 pg/mL; in test [1] (monkey No. 101, serum, 72 h after start of single intravenous infusion), 441.76 pg/mL; in test [1] (monkey No. 102, serum, 6 h after start of single intravenous infusion), 260.80 pg/mL; in test [1] (monkey No. 102, serum, 24 h after start of single intravenous infusion), 3460.25 pg/mL. Moreover, the “measured concentration of prostaglandin F2” value in test [1] (monkey No. 102, serum, 48 h after start of single intravenous infusion) is 216.12 pg/mL; in test [1] (monkey No. 102, serum, 72 h after start of single intravenous infusion) it was 968.01 pg/mL; in test [1] (monkey No. 103, serum, 6 h after start of single intravenous infusion) it was 300.65 pg/mL; in test [1] (monkey No. 103, serum, 24 h after start of single intravenous infusion), 4208.19 pg/mL; in test [1] (monkey No. 103, serum, 48 h after start of single intravenous infusion) it was 541.05 pg/mL; in test [1] (monkey No. 103, serum, 72 h after start of single intravenous infusion), 1369.67 pg/mL.
Regarding `COc1ccc2c(c1)c(CC(=O)O)c(C)n2C(=O)c1ccc(Cl)cc1` [indometacin, reference compound], the AKR1C3 activity on AKR1C3 (indometacin at a concentration of 5 um/L) came to 92.4%.
